# Source: patent US20140079836A1, “METHODS AND COMPOSITIONS FOR ALTERING HEALTH, WELLBEING, AND LIFESPAN” (LifeSpan Extension, LLC, priority 2008, published 2014)
# Tested on: genes involved in longevity (Array 1)
# Assay: Custom RT-PCR microarray (Array 1) gene expression in skin fibroblasts, UVB/UVA1
# Format: cell-based, human
# Conditions: for RTC gene expression fold change / PPC gene expression fold change: control well
# Method: Seeding of cells: On Day 1, each cell culture was seeded into 6 well cluster dishes at ˜1.5×10^5 cells in 4 mls medium per well. Three wells were seeded per test condition or control.
# Experimental phase: On Day 3, wells were washed 1× with 2 mls medium, fed back 2 mls medium without fetal bovine serum and preincubated for 30-60 minutes before challenge with test or control conditions. After the preincubation, medium was aspirated from the wells and 2.5 mls of test or control condition in medium with 1% fetal bovine serum was pipetted into the appropriate wells.
# (3) UVA1, UVB exposed and unexposed cells without test condition were used as controls. The experimental phase ended at 24 hours post UV exposure. Cells from each test and control parameter were then prepped for RNA isolation as described below.
# UVB/UVA1 exposure: Cells exposed to UV received 200 mJ/cm^2 UVB/1 MED UVA1 using Thermo Oriel solar simulator model SP66923-3056. Cells were exposed from the bottom of the culture dish. The UV dose delivered to the cells was adjusted for interference from the plastic in the culture dish.
# Preparation of RNA: The RNA was isolated using the Qiagen RNEasy Plus Mini Kit according to the manufacturer's protocol which can be found on the World Wilde Web at qiagen.com/literature/Defaultaspx?Term=&Language=EN&LiteratureType=4& ProductCategory=10162. The RNA was quantified and examined for purity using the 260/280 nm read method in a μ Quant spectrophotometer before use in the array.
# Creation and Performance of a Custom Microarray (“Array 1”): Through the Custom Array design service of Superarray Bioscience Corporation, a 96 well RT-PCR microarray (“Array 1”) was developed to illustrate genetic responses in cells treated as above for specific genes involved in longevity as well as the relevant quality controls. The array was performed in compliance with manufacturer's guidelines and by recommended manufacturer's protocol as can be found on the World Wilde Web at superarray.com/Manual/perarrayplate.pdf
# (§1) Custom Microarray Results: The results from the microarrays were determined using the delta CT method which uses comparisons of control genes and threshold cycles of genes of interest to generate relative expression values. The full set of experimental conditions was cross referenced and the data is provided herewith in DATA TABLE 3.
# Preparation of RNA: The RNA was isolated using the Qiagen RNEasy Plus Mini Kit according to the manufacturer's protocol which can be found on the World Wide Web at qiagen.com/literature/Default. aspx?Term=&Language=EN&LiteratureType=4&ProductCategory=10162.
# The RNA was quantified and examined for purity using the 260/280 nm read method in a μ Quant spectrophotometer before use in the array.
# Creation and Performance of the Custom Microarray: Through the Custom Array design service of Superarray Bioscience Corporation, a 96 well RT-PCR Microarray was developed to illustrate genetic responses in cells treated as above for specific genes involved in longevity as well as the relevant quality controls. The array was performed in compliance with manufacturer's guidelines and by recommended manufacturer's protocol as can be found on the World Wide Web at superarray.com/Manual/perarrayplate.pdf.
# as §1, with “4.” for “3.”
# as §1, with “5. […]” for “3.”
# [1] = donor two idebenone + UVB Continuous Incubation
# [2] = donor two idebenone + UVB vs. Green tea + UVB 4 hr Incubation
# [3] = donor two idebenone + UVB vs. Green tea + UVB Continuous Incubation
structure (smiles),measurement,setting,value
"COC1=C(OC)C(=O)C(CCCCCCCCCCO)=C(C)C1=O [Idebenone, 6-(10-hydroxydecyl)-2,3-dimethoxy-5-methyl-1,4-benzoquin-one]",PARP2 expression fold change,[1],2.53
same,PPARG expression fold change,[1],3.22
same,PTGS2 expression fold change,[1],2.71
same,SHC1 expression fold change,[1],1.92
same,SIRT1 expression fold change,[1],1.98
same,SOD1 expression fold change,[1],1.10
same,SOD2 expression fold change,[1],1.03
same,TEP1 expression fold change,[1],1.79
same,TERT expression fold change,[1],8.50
same,TNF expression fold change,[1],1.50
same,TP53 expression fold change,[1],1.67
same,ACE expression fold change,[2],1.32
same,ACTB expression fold change,[2],−3.03
same,APOE expression fold change,[2],1.04
same,BAX expression fold change,[2],1.11
same,BCL2 expression fold change,[2],1.19
same,CASP2 expression fold change,[2],−1.23
same,CASP9 expression fold change,[2],1.15
same,CCL4L1 expression fold change,[2],10.95
same,CLK1 expression fold change,[2],−1.11
same,COX1 expression fold change,[2],−1.19
same,CREBBP expression fold change,[2],1.11
same,CYP19A1 expression fold change,[2],11.33
same,DDC expression fold change,[2],14.95
same,GAPDH expression fold change,[2],−2.92
same,GH1 expression fold change,[2],8.30
same,HIGX1A fold change,[2],8.30
same,HLA-DRA expression fold change,[2],16.03
same,HPRT1 expression fold change,[2],1.04
same,HSPA1A expression fold change,[2],1.32
same,HSPA1B expression fold change,[2],2.64
same,HSPA1L expression fold change,[2],1.87
same,IFI44 expression fold change,[2],2.15
same,IGF1 expression fold change,[2],4.77
same,IGF2 expression fold change,[2],1.00
same,IL1A expression fold change,[2],1.28
same,IL6 expression fold change,[2],−9.83
same,IL10 expression fold change,[2],4.29
same,KRAS expression fold change,[2],−1.11
same,MAPK14 expression fold change,[2],1.32
same,NADSYN1 expression fold change,[2],−1.19
same,NFKB1 expression fold change,[2],−1.03
same,NOS2A expression fold change,[2],17.18
same,PARP1 expression fold change,[2],1.52
same,PARP2 expression fold change,[2],5.87
same,PPARG expression fold change,[2],2.74
same,PTGS2 expression fold change,[2],2.22
same,SHC1 expression fold change,[2],1.11
same,SIRT1 expression fold change,[2],1.63
same,SOD1 expression fold change,[2],1.52
same,SOD2 expression fold change,[2],−1.32
same,TEP1 expression fold change,[2],2.55
same,TERT expression fold change,[2],3.37
same,TNF expression fold change,[2],6.98
same,TP53 expression fold change,[2],−1.51
same,ACE gene expression fold change,[3],1.33
same,ACTB gene expression fold change,[3],−1.67
same,APOE gene expression fold change,[3],1.16
same,BAX gene expression fold change,[3],−1.45
same,BCL2 gene expression fold change,[3],−1.10
same,CASP2 gene expression fold change,[3],−1.79
same,CASP9 gene expression fold change,[3],1.58
same,CCL4L1 gene expression fold change,[3],4.97
same,CLK1 gene expression fold change,[3],1.01
same,COX1 gene expression fold change,[3],−2.53
same,CREBBP gene expression fold change,[3],−1.10
same,CYP19A1 gene expression fold change,[3],8.07
same,DDC gene expression fold change,[3],24.46
same,GAPDH gene expression fold change,[3],−1.10
same,GH1 gene expression fold change,[3],25.33
same,HIGX1A gene expression fold change,[3],6.12
same,HLA-DRA gene expression fold change,[3],58.18
same,HPRT1 gene expression fold change,[3],2.40
same,HSPA1A gene expression fold change,[3],1.12
same,HSPA1B gene expression fold change,[3],1.16
same,HSPA1L gene expression fold change,[3],−1.61
same,IFI44 gene expression fold change,[3],1.29
same,IGF1 gene expression fold change,[3],6.12
same,IGF2 gene expression fold change,[3],−1.14
same,IL1A gene expression fold change,[3],10.65
same,IL6 gene expression fold change,[3],1.04
same,IL10 gene expression fold change,[3],4.32
same,KRAS gene expression fold change,[3],1.53
same,MAPK14 gene expression fold change,[3],1.64
same,NADSYN1 gene expression fold change,[3],1.12
same,NFKB1 gene expression fold change,[3],2.24
same,NOS2A gene expression fold change,[3],15.06
same,PARP1 gene expression fold change,[3],−1.98
same,PARP2 gene expression fold change,[3],4.48
same,PPARG gene expression fold change,[3],2.16
same,PTGS2 gene expression fold change,[3],−1.06
same,SHC1 gene expression fold change,[3],1.48
same,SIRT1 gene expression fold change,[3],1.88
same,SOD1 gene expression fold change,[3],−1.56
same,SOD2 gene expression fold change,[3],1.33
same,TEP1 gene expression fold change,[3],1.12
same,TERT gene expression fold change,[3],7.53
same,TNF gene expression fold change,[3],10.29
same,TP53 gene expression fold change,[3],1.88
same,RTC gene expression fold change,"donor two idebenone + UVB vs. Green tea + UVB Continuous Incubation, entry r283",1.08
same,PPC gene expression fold change,"donor two idebenone + UVB vs. Green tea + UVB Continuous Incubation, entry r289",−1.67
same,RTC gene expression fold change,"donor two idebenone + UVB vs. Green tea + UVB Continuous Incubation, entry r293",2.09
same,PPC gene expression fold change,"donor two idebenone + UVB vs. Green tea + UVB Continuous Incubation, entry r295",−1.35
